Holding throughout (type): cell-based
Assay [1] concerns the target Ba/F3 (EGFR L858R/T790M/C797S) (Homo sapiens, UniProt P00533, T790M/C797S/L858R, cells depend on it). The experiment in a line: Cell proliferation inhibitory activity assay, Ba/F3 EGFR L858R/T790M/C797S. The note with it: cell proliferation inhibition, 72 hours, luminescence; read-out: Ba/F3 cells overexpressing different EGFR mutations IC50 (nM) L858R/T790M/C797S. As to the method:
(§1) Suspension cells Ba/F3 (EGFR. Dell9/T790M/C797S), Ba/F3 (EGFR L858R/T790M/C797S), Ba/F3 (EGFR Del19/C797S), and Ba/F3 (EGFR L858R/C797S) overexpressing different EGFR mutations were cultured in PRMI 1640 containing 10% FBS and 1% PS, and adherent cells A431 carrying EGFR WT were cultured in DMEM containing 10% FBS and 1% PS. The experimental steps for compound activity detection are as follows: • (1) Take adherent cells in the logarithmic growth phase, digest them with trypsin count them, and then inoculate them into a 96-well plate at a certain density. Incubate them overnight at 37° C. and 5% CO2 to allow them to adhere.
(§2) Y=minimum+([…])/(1+10^((Log IC50−X)*slope)); • X: logarithm of compound concentration; Y: cell survival inhibition rate.

Assay [2] concerns the target Ba/F3 (EGFR Del19/C797S) (Homo sapiens, UniProt P00533, C797S, cells depend on it, form not given). The experiment in a line: Cell proliferation inhibitory activity assay, Ba/F3 EGFR Del19/C797S. As to conditions: cell proliferation inhibition, 72 hours, luminescence; read-out: Ba/F3 cells overexpressing different EGFR mutations IC50 (nM) Del19/C797S. Here is the method: as §1, §2

Assay [3] has as its target Ba/F3 (EGFR L858R/C797S) (Homo sapiens, UniProt P00533, C797S/L858R, cells depend on it). The assay is described as follows: Cell proliferation inhibitory activity assay, Ba/F3 EGFR L858R/C797S. As to conditions: cell proliferation inhibition, 72 hours, luminescence; read-out: Ba/F3 cells overexpressing different EGFR mutations IC50 (nM) L858R/C797S. Here is the method:
as §1, §2

The target in assay [4] is Ba/F3 cells overexpressing EGFR Del19/T790M/C797S (Homo sapiens, UniProt P00533, T790M/C797S, cells depend on it, form not given). The assay is described as follows: Cell proliferation inhibitory activity assay, Ba/F3 EGFR Del19/T790M/C797S. As to conditions: cell proliferation inhibition, 72 hours, luminescence; read-out: Ba/F3 cells overexpressing different EGFR mutations IC50 (nM) Del19/T790M/C797S. As to the method:
as §1, §2

In assay [5] the test system is A431 cell carrying EGFR WT. The experiment in a line: Cell proliferation inhibitory activity assay, A431. The note with it: Homo sapiens, A-431; cell proliferation inhibition, 72 hours, luminescence. As to the method:
as §1, §2

Ba/F3 cells overexpressing EGFR Del19/T790M/C797S, sequence (P00533 with tags, fused parts or gaps DEL746-750/T790M/C797S, form open): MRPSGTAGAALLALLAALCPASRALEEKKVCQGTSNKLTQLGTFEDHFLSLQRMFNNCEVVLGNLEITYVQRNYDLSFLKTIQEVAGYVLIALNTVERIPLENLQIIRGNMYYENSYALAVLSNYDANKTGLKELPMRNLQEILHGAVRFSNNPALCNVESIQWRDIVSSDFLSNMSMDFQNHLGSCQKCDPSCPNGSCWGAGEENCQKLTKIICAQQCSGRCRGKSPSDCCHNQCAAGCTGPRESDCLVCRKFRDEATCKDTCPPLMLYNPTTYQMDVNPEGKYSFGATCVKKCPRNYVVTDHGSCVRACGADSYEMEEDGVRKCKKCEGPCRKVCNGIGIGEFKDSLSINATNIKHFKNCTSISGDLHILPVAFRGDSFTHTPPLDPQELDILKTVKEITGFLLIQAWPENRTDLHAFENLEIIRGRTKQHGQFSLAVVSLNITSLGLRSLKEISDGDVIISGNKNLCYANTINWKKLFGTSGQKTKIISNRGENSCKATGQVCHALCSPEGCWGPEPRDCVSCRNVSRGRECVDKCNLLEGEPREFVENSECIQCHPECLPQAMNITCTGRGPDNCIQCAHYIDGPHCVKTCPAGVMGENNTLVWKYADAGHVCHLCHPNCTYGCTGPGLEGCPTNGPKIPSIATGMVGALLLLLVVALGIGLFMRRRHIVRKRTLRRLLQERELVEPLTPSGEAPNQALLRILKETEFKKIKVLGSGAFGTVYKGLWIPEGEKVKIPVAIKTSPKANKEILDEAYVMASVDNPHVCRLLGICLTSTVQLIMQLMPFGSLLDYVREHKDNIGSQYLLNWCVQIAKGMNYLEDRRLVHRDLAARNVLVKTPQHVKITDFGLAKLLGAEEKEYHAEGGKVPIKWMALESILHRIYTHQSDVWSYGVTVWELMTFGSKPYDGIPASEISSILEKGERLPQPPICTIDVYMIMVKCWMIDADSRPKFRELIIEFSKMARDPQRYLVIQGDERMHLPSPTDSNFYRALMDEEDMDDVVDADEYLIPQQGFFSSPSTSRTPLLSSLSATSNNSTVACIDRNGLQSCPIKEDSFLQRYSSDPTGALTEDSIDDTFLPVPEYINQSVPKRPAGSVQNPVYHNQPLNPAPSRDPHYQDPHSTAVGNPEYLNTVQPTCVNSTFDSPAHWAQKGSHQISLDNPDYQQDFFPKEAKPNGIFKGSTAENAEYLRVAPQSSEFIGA
Ba/F3 (EGFR Del19/C797S), sequence (P00533 with tags, fused parts or gaps DEL746-750/C797S, form open): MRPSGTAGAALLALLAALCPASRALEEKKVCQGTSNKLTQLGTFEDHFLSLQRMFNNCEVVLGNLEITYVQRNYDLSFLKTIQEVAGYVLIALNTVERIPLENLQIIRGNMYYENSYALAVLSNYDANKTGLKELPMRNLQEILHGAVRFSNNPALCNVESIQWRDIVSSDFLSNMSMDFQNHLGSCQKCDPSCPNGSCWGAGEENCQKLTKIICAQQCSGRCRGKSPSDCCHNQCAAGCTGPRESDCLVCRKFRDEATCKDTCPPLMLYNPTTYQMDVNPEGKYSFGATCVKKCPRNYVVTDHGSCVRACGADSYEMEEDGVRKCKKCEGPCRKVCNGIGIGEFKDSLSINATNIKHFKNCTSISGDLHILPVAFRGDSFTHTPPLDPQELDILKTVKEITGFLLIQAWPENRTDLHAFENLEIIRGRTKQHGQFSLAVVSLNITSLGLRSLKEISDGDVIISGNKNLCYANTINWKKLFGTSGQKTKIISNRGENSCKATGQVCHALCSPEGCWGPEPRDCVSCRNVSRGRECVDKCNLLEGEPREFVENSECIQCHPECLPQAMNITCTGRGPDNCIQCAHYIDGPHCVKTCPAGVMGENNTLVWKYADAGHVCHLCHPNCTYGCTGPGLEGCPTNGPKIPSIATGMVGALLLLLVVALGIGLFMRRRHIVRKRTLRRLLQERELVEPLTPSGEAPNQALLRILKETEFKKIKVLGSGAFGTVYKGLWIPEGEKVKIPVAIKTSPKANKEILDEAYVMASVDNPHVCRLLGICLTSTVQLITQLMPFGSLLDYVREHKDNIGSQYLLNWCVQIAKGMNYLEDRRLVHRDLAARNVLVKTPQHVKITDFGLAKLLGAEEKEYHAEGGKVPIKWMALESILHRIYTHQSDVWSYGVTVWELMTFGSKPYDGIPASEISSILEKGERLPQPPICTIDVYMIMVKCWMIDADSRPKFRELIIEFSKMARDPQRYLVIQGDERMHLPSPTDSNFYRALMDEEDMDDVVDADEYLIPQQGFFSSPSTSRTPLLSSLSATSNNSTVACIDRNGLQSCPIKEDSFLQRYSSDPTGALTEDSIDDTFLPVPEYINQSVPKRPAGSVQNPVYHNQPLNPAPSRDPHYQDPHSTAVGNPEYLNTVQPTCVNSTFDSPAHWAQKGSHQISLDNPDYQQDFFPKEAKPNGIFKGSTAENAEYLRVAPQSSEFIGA
Ba/F3 (EGFR L858R/T790M/C797S), sequence (P00533 whole entry T790M/C797S/L858R): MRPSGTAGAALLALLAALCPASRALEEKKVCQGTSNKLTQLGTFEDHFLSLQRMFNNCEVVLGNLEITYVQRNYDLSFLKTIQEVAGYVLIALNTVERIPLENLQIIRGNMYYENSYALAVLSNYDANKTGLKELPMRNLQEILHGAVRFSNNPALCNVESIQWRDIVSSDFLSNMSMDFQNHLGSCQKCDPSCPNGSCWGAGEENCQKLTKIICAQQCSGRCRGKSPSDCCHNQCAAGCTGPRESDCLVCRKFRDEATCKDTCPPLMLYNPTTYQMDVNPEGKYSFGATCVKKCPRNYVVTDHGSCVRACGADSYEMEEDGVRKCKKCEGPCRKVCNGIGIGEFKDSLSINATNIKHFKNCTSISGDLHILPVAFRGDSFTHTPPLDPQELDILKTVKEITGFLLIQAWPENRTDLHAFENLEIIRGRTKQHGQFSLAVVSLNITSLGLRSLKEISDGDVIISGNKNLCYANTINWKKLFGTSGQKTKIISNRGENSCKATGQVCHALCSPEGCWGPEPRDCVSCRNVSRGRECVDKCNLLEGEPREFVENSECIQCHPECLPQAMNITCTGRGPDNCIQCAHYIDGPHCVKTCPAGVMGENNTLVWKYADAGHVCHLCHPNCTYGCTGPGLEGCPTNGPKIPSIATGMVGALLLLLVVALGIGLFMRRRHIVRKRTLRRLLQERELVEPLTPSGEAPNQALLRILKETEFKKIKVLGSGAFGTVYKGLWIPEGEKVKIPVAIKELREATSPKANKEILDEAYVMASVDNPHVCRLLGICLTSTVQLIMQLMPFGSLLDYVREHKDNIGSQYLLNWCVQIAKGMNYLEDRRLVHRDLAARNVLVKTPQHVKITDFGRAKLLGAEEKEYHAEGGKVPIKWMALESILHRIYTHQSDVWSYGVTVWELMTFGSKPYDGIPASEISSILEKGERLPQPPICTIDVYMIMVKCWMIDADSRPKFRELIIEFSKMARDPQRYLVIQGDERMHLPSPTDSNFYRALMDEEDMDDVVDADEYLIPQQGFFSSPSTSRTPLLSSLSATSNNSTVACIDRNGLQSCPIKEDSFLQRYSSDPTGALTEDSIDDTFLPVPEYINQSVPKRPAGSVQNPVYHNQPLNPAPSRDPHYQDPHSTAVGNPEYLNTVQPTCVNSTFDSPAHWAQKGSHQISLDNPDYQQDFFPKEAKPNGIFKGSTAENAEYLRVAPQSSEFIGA
Ba/F3 (EGFR L858R/C797S), sequence (P00533 whole entry C797S/L858R): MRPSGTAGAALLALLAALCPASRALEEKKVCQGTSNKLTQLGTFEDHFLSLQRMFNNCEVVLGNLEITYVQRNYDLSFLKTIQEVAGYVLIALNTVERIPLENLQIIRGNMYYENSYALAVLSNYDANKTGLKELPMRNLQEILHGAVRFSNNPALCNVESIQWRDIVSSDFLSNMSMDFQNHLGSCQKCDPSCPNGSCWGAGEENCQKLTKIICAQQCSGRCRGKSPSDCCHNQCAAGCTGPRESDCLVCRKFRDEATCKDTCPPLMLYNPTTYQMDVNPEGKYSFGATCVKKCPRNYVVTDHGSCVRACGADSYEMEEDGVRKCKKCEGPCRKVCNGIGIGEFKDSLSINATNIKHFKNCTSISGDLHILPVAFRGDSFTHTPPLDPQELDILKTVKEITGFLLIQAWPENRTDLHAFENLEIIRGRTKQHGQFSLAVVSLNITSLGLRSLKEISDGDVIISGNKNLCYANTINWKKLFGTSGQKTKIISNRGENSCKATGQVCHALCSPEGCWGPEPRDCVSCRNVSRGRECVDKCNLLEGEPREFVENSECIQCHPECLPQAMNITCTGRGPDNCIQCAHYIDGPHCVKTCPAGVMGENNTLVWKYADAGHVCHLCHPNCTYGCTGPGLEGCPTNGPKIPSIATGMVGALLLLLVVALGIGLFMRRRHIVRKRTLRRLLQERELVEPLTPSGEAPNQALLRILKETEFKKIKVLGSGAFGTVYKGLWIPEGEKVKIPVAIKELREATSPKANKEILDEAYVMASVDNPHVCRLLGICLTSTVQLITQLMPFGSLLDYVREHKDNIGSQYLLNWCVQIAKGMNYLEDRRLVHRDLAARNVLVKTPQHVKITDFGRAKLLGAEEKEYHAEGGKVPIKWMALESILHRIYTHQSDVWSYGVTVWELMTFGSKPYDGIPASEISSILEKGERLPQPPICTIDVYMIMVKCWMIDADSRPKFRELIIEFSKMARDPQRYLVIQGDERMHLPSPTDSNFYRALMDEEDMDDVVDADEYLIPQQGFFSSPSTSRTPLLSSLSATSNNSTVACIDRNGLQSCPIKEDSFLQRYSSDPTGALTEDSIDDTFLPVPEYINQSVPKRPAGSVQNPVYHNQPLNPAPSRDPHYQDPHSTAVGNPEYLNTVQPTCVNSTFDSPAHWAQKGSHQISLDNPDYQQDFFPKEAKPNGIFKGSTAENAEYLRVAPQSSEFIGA

The term IC50 denotes the concentration at which inhibition is half-maximal. Higher therefore signals weaker potency. Regarding `Cc1cc2cc(n1)-c1cnccc1OCCCC(C)(C)Cn1c(nc3ccc(N4CCC5(CCN(C)CC5)CC4)cc31)NC2=O` [Example 7, 2^6,9,9-trimethyl-5^6-(9-methyl-3,9-diazaspiro[5.5]undecan-3-yl)-5^1H-11-oxa-4-aza-5(2,1)-benzo[d]imidazola-1(3,4),2(2,4)-dipyridinacycloundecaphan-3-one], the GI50 is 3.7 nM in assay [1], 4.5 nM in assay [2], 11 nM in assay [3] and 1.6 nM in assay [4]. Further, in assay [5], the IC50 came to 226 nM.

Regarding `Cc1cc2cc(n1)-c1cnc(F)cc1OCCC[C@@H](C)Cn1c(nc3ccc(N4CCC5(CCNCC5)CC4)cc31)NC2=O` [Example 9, (R)-1^6-fluoro-2^6,7-dimethyl-5^6-(3,9-driazaspiro[3.5]undecan-3-yl)-5^1-11-oxa-4-aza-5(2,1)-benzo[d]imidazola-1(3,4),2(2,4)-dipyridinacycloundecaphan-3-one], the GI50 was found to be 1.1 nM in assay [1], 0.77 nM in assay [2], 3.6 nM in assay [3] and 0.73 nM in assay [4]. For the same molecule, the half-maximal inhibitory concentration (IC50) in assay [5] was 425 nM.

For the molecule `Cc1cc2cc(n1)-c1cnccc1OCCC[C@@H](C)Cn1c(nc3cc(C)c(N4CCC5(CCN(C)CC5)CC4)cc31)NC2=O` [Example 11, (R)-2^6,5^3,7-trimethyl-5^6-(9-methyl-3,9-diazaspiro[5.5]undecan-3-yl)-5^1H-11-oxa-4-aza-5(2.I)-benzo[d]imidazola-1(3,4),2(2,4)-dipyridinacycloundecaphan-3-one], the GI50 in assay [1] is 3.4 nM; in assay [2] it was 0.15 nM; in assay [3], 1 nM; in assay [4], 2.2 nM. The IC50 in assay [5] stood at 493 nM.

As for `Cc1cc2cc(n1)-c1cnccc1OCCCCCn1c(nc3cc(F)c(N4CCC5(CCN(C)CC5)CC4)cc31)NC2=O` [Example 14, 5^5-fluoro-2^6-methyl-5^6-(9-methyl-3,9-diazaspiro[5.5]undecan-3-yl)-5^1H-11-oxa-4-aza-5(2,1)-benzo[d]imidazola-1(3,4),2(2,4)-dipyridinacycloundecaphan-3-one], the GI50 worked out at 1.5 nM in assay [1], 0.18 nM in assay [2], 1.8 nM in assay [3] and 0.37 nM in assay [4]. Further, in assay [5], the midpoint of inhibition, the IC50, lay at 805 nM.

Take `COCCCN1CCC2(CC1)CCN(c1ccc3nc4n(c3c1)C[C@H](C)CCCOc1cc(F)ncc1-c1cc(cc(C)n1)C(=O)N4)CC2` [Example 17, 1^6-fluoro-5^6-(9-(3-methoxypropyl)-3,9-diazaspiro[5.5]undecan-3-yl)-2^6-methyl-5^1H-11-oxa-4-aza-5(2,1)-benzo[d]imidazola-1(3,4),2(2,4)-dipyridinacycloundecaphan-3-one]: the GI50 in assay [1] was 4.7 nM; in assay [2], 5 nM; in assay [3], 18 nM; in assay [4], 1.2 nM. The IC50 in assay [5] came out at 1470 nM.

With `Cc1cc2cc(n1)-c1cnccc1OCCCCCn1c(nc3ccc(N4CCC5(CCN(CCC(N)=O)CC5)CC4)cc31)NC2=O` [Example 18, 3-(9-(2^6-methyl-3-oxo-5^1H-11-oxa-4-aza-5(2,1)-benzo[d]imidazola-1(3,4),2(2,4)-dipyridinacycloundecaphane-5^6-yl)-3,9-diazaspiro[5.5]undecan-3-yl)propanamide], the GI50 in assay [1] was found to be 2.1 nM; in assay [2], 0.5 nM; in assay [3] it was 3.9 nM; in assay [4], 0.77 nM. This molecule also displayed an IC50 in assay [5] of 631 nM.

As to `Cc1cc2cc(n1)-c1cnccc1OCCC[C@@H](C)Cn1c(nc3ccc(N4CCC5(CC4)CCN(C4CC4)CC5)cc31)NC2=O` [Example 45, (R)-5^6-(9-cyclopropyl-3,9-diazaspiro[5.5]undecan-3-yl)-2^6,7-dimethyl-5^1H-11-oxa-4-aza-5(2,1)-benzo [d]imidazola-1(3,4),2(2,4)-dipyridinacyclo-undecaphan-3-one], the GI50 in assay [1] was 3.7 nM; in assay [2], 0.27 nM; in assay [3] it was 2.1 nM; in assay [4], 1.6 nM. The molecule further gave a half-maximal inhibitory concentration (IC50) in assay [5] of 701 nM.

In the case of `Cc1cc2cc(n1)-c1cnccc1OCCCCCn1c(nc3cc(F)c(N4CCC5(CCN(CCF)CC5)CC4)cc31)NC2=O` [Example 61, 5^5-fluoro-5^6-(9-(2-fluoroethyl)-3,9-diazaspiro [5.5]undecan-3-yl)-2^6-methyl-5^1H-11-oxa-4-aza-5(2,1)-benzo [d]imidazola-1(3,4),2(2,4)-dipyridinacyclo-undecaphan-3-one], the GI50 in assay [1] was 1.8 nM; in assay [2], 0.29 nM; in assay [3], 3 nM; in assay [4], 0.91 nM. The molecule also came in with an IC50 in assay [5] of 1080 nM.

Take `Cc1cc2cc(n1)-c1cnccc1OCCCCCn1c(nc3cc(F)c(N4CCC5(CCN(CC6COC6)CC5)CC4)cc31)NC2=O` [Example 62, 5^5-fluoro-2^6-methyl-5^6-(9-(oxetan-3-ylmethyl)-3,9-diazaspiro [5.5]undecan-3-yl)-5^1H-11-oxa-4-aza-5(2,1)-benzo[d] imidazola-1(3,4),2(2,4)-dipyridinacyclo-undecaphan-3-one]: the GI50 in assay [1] came out at 3 nM; in assay [2], 0.57 nM; in assay [3] it was 3.8 nM; in assay [4], 0.95 nM. The same molecule registered an IC50 in assay [5] of 772 nM.

In the case of `Cc1cc2cc(n1)-c1cnccc1OCCCCCn1c(nc3cc(F)c(N4CCC5(CC4)CCN(C4COC4)CC5)cc31)NC2=O` [Example 63, 5^5-fluoro-2^6-methyl-5^6-(9-(oxetan-3-yl)-3,9-diazaspiro[5.5]undecan-3-yl)-5^1H-11-oxa-4-aza-5(2,1)-benzo [d]imidazola-1(3,4),2(2,4)-dipyridinacyclo-undecaphan-3-one], the GI50 came out at 1.5 nM in assay [1], 0.67 nM in assay [2], 2 nM in assay [3] and 0.5 nM in assay [4]. Moreover, in assay [5], the half-inhibitory concentration (IC50) was found to be 472 nM.

Regarding `Cc1cc2cc(n1)-c1cnccc1OCCCCCn1c(nc3cc(F)c(N4CCC5(CC4)CCN(C4CC4)CC5)cc31)NC2=O` [Example 65, 5^6-(9-cyclopropyl-3,9-diazasptro [5.5]undecan-3-yl)-5^5-fluoro-2^6-methyl-5^1H-11-oxa-4-aza-5(2,1)-benzo [d]imidazola-1(3,4),2(2,4)-dipyridinacyclo-undecaphan-3-one], the GI50 was 2.3 nM in assay [1], 0.69 nM in assay [2], 4.6 nM in assay [3] and 1.1 nM in assay [4]. The molecule further came in with an IC50 in assay [5] of 1250 nM.

`COCCN1CCC2(CC1)CCN(c1ccc3nc4n(c3c1)CCCCCOc1ccncc1-c1cc(cc(C)n1)C(=O)N4)CC2` [Example 75, 5^6-(9-(2-methoxy-ethyl)-3,9-diazaspiro[5.5]undecan-3-yl)-2^6-methyl-5^1H-11-oxa-4-aza-5(2,1)-benzo[d] imidazola-1(3,4), 2(2,4)-dipyridinacyclo-undecaphan-3-one]: the GI50 in assay [1] worked out at 0.08 nM; in assay [2] it was 0.11 nM; in assay [3], 0.07 nM; in assay [4], 0.07 nM. The concentration for half-maximal inhibition (IC50) in assay [5] is 646 nM.

Take `Cc1cc2cc(n1)-c1cnccc1OCCC[C@@H](C)Cn1c(nc3ccc(N4CCC5(CC4)CCN(C4COC4(C)C)CC5)cc31)NC2=O` (stereo partly drawn) [Example 82, (7R)-5^6-(9-(2,2-dimethyloxetan-3-yl)-3,9-diazaspiro[5.5]undecan-3-yl)-2^6,7-dimethyl-5^1H-11-oxa-4-aza-5(2,1)-benzo [d]imidazola-1(3,4),2(2,4)-dipyridinacyclo-undecaphan-3-one]: the GI50 in assay [1] was 12 nM; in assay [2], 2.9 nM; in assay [3], 17 nM; in assay [4] it was 4.7 nM. This molecule also showed a 50% inhibitory concentration (IC50) in assay [5] of 770 nM.

Regarding `Cc1cc2cc(n1)-c1cnccc1OCCC[C@@H](C)Cn1c(nc3ccc(N4CCC5(CC4)CCN(C4COC4C)CC5)cc31)NC2=O` (stereo partly drawn) [Example 83, (7R)-2^6,7-dimethyl-5^6-(9-(2-methyloxetan-3-yl)-3,9-diazaspiro [5.5]undecan-3-yl)-5^1H-11-oxa-4-aza-5(2,1)-benzo[d] imidazola-1(3,4),2(2,4)-dipyridinacyclo-undecaphan-3-one], the GI50 was found to be 2 nM in assay [1], 0.27 nM in assay [2], 2 nM in assay [3] and 1.3 nM in assay [4]. In addition, in assay [5], the IC50 came to 294 nM.
